# Data: patent US9884040B2, “Desethylamiodarone for use in cancer treatment” (PÉCSI TUDOMÁNYEGYETEM, priority 2015, dated 2018)
# Tested on: DU-145 prostate cancer cell line
# Test: Cisplatin sensitivity of DU-145 cells with DEA (MTT)
# Format: cell-based
# Settings: increasing cisplatin, 48 hours, presence or absence of 10 μM DEA
# Procedure: The cells were seeded into 96-well plates at a starting density of 10^4 cells per well and cultured overnight before DEA was added to the medium for 24 h and 48 h. The medium was changed to a fresh one containing 0.5% of 3-[4,5-dimethylthiazol-2-yl]-2,5-diphenyl-tetrazolium bromide (MTT+) for an additional 3 hours, then the MTT+ reaction was terminated by adding HCl to 10 mM final concentration. The amount of blue formazan dye formed from MTT+ was proportional to the number of live cells, and was determined with an Anthos Labtech 2010 ELISA reader at 550 nm. All experiments were run in at least 4 replicates and repeated 3 times.
# DU-145 cells were exposed to increasing concentrations of cisplatin 48 hours in presence or absence of 10 μM DEA. Viability of the cells was detected by the MTT method. Untreated cells served as controls.
structure (smiles),measurement,value
"CCCCc1oc2ccccc2c1C(=O)c1cc(I)c(OCCNCC)c(I)c1 [DEA, (2-butyl-3-benzofuranyl)[4-[2-(ethylamino)ethoxy]-3,5-diiodophenyl]-methanone]",Cisplatin sensitivity of DU-145 cells (MTT),sensitizes DU-145 prostate cancer cells for cisplatin
